Tests used:
[1] = Inhibitory activity against HIV-1 RT with poly.rC-oligo.dG template primer
[2] = target: Reverse transcriptase (Human immunodeficiency virus 2); assay: Inhibitory activity against HIV-2 reverse transcriptase

| Compound | IC50 [1] [nM] | IC50 [2] [nM] |
| --- | --- | --- |
| O=S(=O)(c1ccccc1)c1c(-c2nc3c([nH]2)CCCC3)[nH]c2ccc(Cl)cc12 [2-(3-Benzenesulfonyl-5-chloro-1H-indol-2-yl)-4,5,6,7-tetrahydro-1H-benzoimidazole] | 8.1 |  |
| O=S(=O)(c1ccccc1)c1c(C2=NCCCN2)[nH]c2ccc(Cl)cc12 [3-Benzenesulfonyl-5-chloro-2-(1,4,5,6-tetrahydro-pyrimidin-2-yl)-1H-indole] | 2290 |  |
| CCc1nc(-c2[nH]c3ccc(Cl)cc3c2S(=O)(=O)c2ccccc2)[nH]c1CC [3-Benzenesulfonyl-5-chloro-2-(4,5-diethyl-1H-imidazol-2-yl)-1H-indole] | 10 |  |
| O=S(=O)(c1ccccc1)c1c(C2=NCCS2)[nH]c2ccc(Cl)cc12 [3-Benzenesulfonyl-5-chloro-2-(4,5-dihydro-thiazol-2-yl)-1H-indole] | 17 | > 300000 |
| Cc1nc(-c2[nH]c3ccc(Cl)cc3c2S(=O)(=O)c2ccccc2)[nH]c1C [3-Benzenesulfonyl-5-chloro-2-(4,5-dimethyl-1H-imidazol-2-yl)-1H-indole] | 5.1 | > 300000 |
| CC1(C)CN=C(c2[nH]c3ccc(Cl)cc3c2S(=O)(=O)c2ccccc2)N1 [3-Benzenesulfonyl-5-chloro-2-(5,5-dimethyl-4,5-dihydro-1H-imidazol-2-yl)-1H-indole] | 50 |  |
| O=S(=O)(c1ccccc1)c1c(-n2ccnc2)[nH]c2ccc(Cl)cc12 [3-Benzenesulfonyl-5-chloro-2-imidazol-1-yl-1H-indole] | 2380 |  |
| O=S(=O)(c1ccccc1)c1c(C2=N[C@H]3CCCC[C@@H]3N2)[nH]c2ccc(Cl)cc12 [(3aS,7aS)-2-(3-Benzenesulfonyl-5-chloro-1H-indol-2-yl)-3a,4,5,6,7,7a-hexahydro-1H-benzoimidazole] | 29 |  |
